Source: US5464617A, “β-lactam compounds” (Hoffmann-La Roche Inc., priority 1994, dated 1995)
In brackets after ≈: the same amount, converted by molar mass. Counter-ions that a name gives are not always drawn.

Columns and labels:
[1] = test system: E. coli 1346; assay: Antibacterial activity of the products per se, serial dilution method in liquid medium (Test E); assay type: cell-based; conditions: product per se; for MIC E. coli 1346: Table 3, liquid medium; for MIC E. coli 1346 (E): test E
Description: The antibacterial activity of the products per se is illustrated on the basis of Table 3 hereinafter, the minimum inhibitory concentration […] in vitro against E. coli 1346 being determined using the serial dilution method in liquid medium: […]

[2] = test system: Citrobacter freundii 1982; assay: MIC in vitro of a 1:4 combination of ceftriaxone with a compound of formula I (Test D); assay type: cell-based; conditions: for MIC C. freundii 1982: Table 2; for MIC C. freundii 1982 (D): test D
Protocol: The minimum inhibitory concentration in vitro ([…]) of a 1:4 combination of ceftriaxone with a compound of formula I against Citrobacter freundii 1982 was measured and compiled in Table 2 hereinafter.

[3] = 1:4 combination of ceftriaxone with the compound
[4] = Table 4, 1:4 combination of ceftriaxone with the compound
[5] = Table 5, particularly preferred products
[6] = Table 5, particularly preferred products, 1:4 combination with ceftriaxone

MIC E. coli 1346 (E) ([1]; Table 4) [µg/mL] | MIC C. freundii 1982 (D) [2, 4] [µg/mL] | SMILES | other results
8 | 0.25 | NC(=O)OCC1=C(C(=O)O)N2C(=O)[C@@H]3[C@H]2[C@H](C1)CN3C(=O)CSc1ccncc1 [58(g), (1aS,3aR,6bR)-5-Carbamoyloxymethyl-1-oxo-2-pyridin-4-ylsulphanylacetyl-1a,2,3,3a,4,6b-hexahydro-1H-2,6a-diazacyclobut[cd]indene-6-carboxylic acid sodium salt] | 
4 | 2 | CS(=O)(=O)NCC1=C(C(=O)O)N2C(=O)[C@@H]3[C@H]2[C@H](C1)CN3C(=O)C(F)(F)F [88(b), (1aS,3aR,6bR)-5-Methylsulphonylaminomethyl-1-oxo-2-trifluoroacetyl-1a,2,3,3a,4,6b-hexahydro-1H-2,6a-diazacyclobut[cd]indene-6-carboxylic acid sodium salt] | 
> 32 | 8 | CC(=O)N1C[C@H]2CC(SCc3n(C)nc[n+]3C)=C(C(=O)[O-])N3C(=O)[C@@H]1[C@@H]23 [3(ao), (1aS,3aR,6bR)-2-Acetyl-5-[(1,4-dimethyl-1H-1,2,4-triazol-5-ylio)-methylsulphanyl]-1-oxo-1a,2,3,3a,4,6b-hexahydro-1H-2,6a-diazacyclobut[cd]indene-6-carboxylate] | 
> 32 | 0.25 | O=C([O-])Cc1ccc[n+](CC2=C(C(=O)O)N3C(=O)[C@@H]4[C@H]3[C@H](C2)CN4C(=O)Nc2ccc(O)cc2)c1 [57(b), (1aS,3aR,6bR)-[1-[6-Carboxy-2-(4-hydroxy-phenylcarbamoyl)-1-oxo-1a,2,3,3a,4,6b-hexahydro-1H-2,6a-diazacyclobut[cd]inden-5-ylmethyl]-pyridin-3-ylio]-acetate] | 
32 (≈ 74.2 µM) | 32 | Cn1nc[n+](C)c1CSC1=C(C(=O)[O-])N2C(=O)[C@@H]3[C@H]2[C@H](C1)CN3C(=O)C(F)(F)F [3(an), (1aS,3aR,6bR)-5-[(1,4-Dimethyl-1H-1,2,4-triazol-5-ylio)methylsulphanyl]-1-oxo-2-trifluoroacetyl-1a,2,3,3a,4,6b-hexahydro-1H-2,6a-diazacyclobut[cd]indene-6-carboxylate] | 
2 | 0.25 | Cn1nnnc1SCC1=C(C(=O)O)N2C(=O)[C@@H]3[C@H]2[C@H](C1)CN3C(=O)CC#N [Example 19(d), (1aS,3aR,6bR)-2-Cyanoacetyl-5-(1-methyl-1H-tetrazol-5-ylsulphanylmethyl)-1-oxo-1a,2,3,3a,4,6b-hexahydro-1H-2,6a-diazacyclobut[cd]indene-6-carboxylic acid sodium salt] | 
2 | 4 | CC(=O)N1C[C@H]2CC(CSc3ncccn3)=C(C(=O)O)N3C(=O)[C@@H]1[C@@H]23 [72(a), (1aS,3aR,6bR)-2-Acetyl-1-oxo-5-(pyrimidin-2-ylsulphanylmethyl)-1a,2,3,3a,4,6b-hexahydro-1H-2,6a-diazacyclobut[cd]indene-6-carboxylic acid sodium salt] | 

Further lines, the compound ahead of its results:

SMILES | MIC E. coli 1346 (E) ([1]; Table 4) [µg/mL] | MIC C. freundii 1982 (D) [2, 4] [µg/mL] | other results
Cn1nnnc1SC1=C(C(=O)O)N2C(=O)[C@@H]3[C@H]2[C@H](C1)CN3C(=O)NCc1cccs1 [3(d), (1aS,3aR,6bR)-5-(1-Methyl-1H-tetrazol-5-ylsulphanyl)-1-oxo-2-(thien-2-ylmethylcarbamoyl)-1a,2,3,3a,4,6b-hexahydro-1H-2,6a-diazacyclobut[cd]indene-6-carboxylic acid sodium salt] |  |  | MIC E. coli 1346 [1]: 32 µg/mL; MIC C. freundii 1982 [2, 3]: 1 µg/mL
Nc1nnc(SCC2=C(C(=O)O)N3C(=O)[C@@H]4[C@H]3[C@H](C2)CN4C(=O)Nc2ccc(O)cc2)s1 [18(d), (1aS,3aR,6bR)-5-(5-Amino-1,3,4-thiadiazol-2-ylsulphanylmethyl)-2-(4-hydroxy-phenylcarbamoyl)-1-oxo-1a,2,3,3a,4,6b-hexahydro-1H-2,6a-diazacyclobut[cd]indene-6-carboxylic acid sodium salt] |  |  | MIC E. coli 1346 (E) [1, 5]: 32 µg/mL; MIC C. freundii 1982 (D) [2, 6]: ≤ 0.06 µg/mL
NC(=O)OCC1=C(C(=O)O)N2C(=O)[C@@H]3[C@H]2[C@H](C1)CN3C(=O)Nc1ccc(O)cc1 [27(a), (1aS,3aR,6bR)-5-Carbamoyloxymethyl-2-(4-hydroxyphenylcarbamoyl)-1-oxo-1a,2,3,3a,4,6b-hexahydro-1H-2,6a-diazacyclobut[cd]indene-6-carboxylic add sodium salt] |  |  | MIC E. coli 1346 (E) [1, 5]: > 32 µg/mL; MIC C. freundii 1982 (D) [2, 6]: ≤ 0.06 µg/mL
O=C([O-])C1=C(CSc2cc[n+](Cc3ccccc3)cc2)C[C@@H]2CN(C(=O)C(F)(F)F)[C@@H]3C(=O)N1[C@H]23 [52(d), (1aS,3aR,6bR)-5-(1-Benzyl-pyridin-4-yliosulphanylmethyl)-1-oxo-2-trifluoroacetyl-1a,2,3,3a,4,6b-hexahydro-1H-2,6a-diazacyclobut[cd]indene-6-carboxylate] | 2 (≈ 3.97 µM) | 1 | 
CC(=O)N1C[C@H]2CC(CSc3nnnn3CC(N)=O)=C(C(=O)O)N3C(=O)[C@@H]1[C@@H]23 [70(a), (1aS,3aR,6bR)-2-Acetyl-5-(1-carbamoylmethyl-1H-tetrazol-5-ylsulphanylmethyl)-1-oxo-1a,2,3,3a,4,6b-hexahydro-1H-2,6a-diazacyclobut[cd]indene-6-carboxylic acid sodium salt] |  |  | MIC E. coli 1346 (E) [1, 5]: 1 µg/mL; MIC C. freundii 1982 (D) [2, 6]: 0.5 µg/mL
Cc1nnc(SCC2=C(C(=O)O)N3C(=O)[C@@H]4[C@H]3[C@@H](CN4C(=O)Nc3ccc(C(N)=O)cc3)O2)s1 [31(b), (1aS,3aR,6bS)-2-(4-Carbamoyl-phenylcarbamoyl)-5-(S-methyl-1,3,4-thiadiazol-2-ylsulphanylmethyl)-1-oxo-1,1a,2,3,3a,6b-hexahydro-4-oxa-2,6a-diazacyclobut[cd]indene-6-carboxylic acid sodium salt] | 8 | 0.2 | 
O=C(Cn1nnnc1SCC1=C(C(=O)O)N2C(=O)[C@@H]3[C@H]2[C@H](C1)CN3C(=O)C(F)(F)F)Nc1ccc(O)cc1 [78(b), (1aS,3aR,6bR)-5-[1-(4-Hydroxy-phenylcarbamoylmethyl)-1H-tetrazol-5-ylsulphanylmethyl]-1-oxo-2-trifluoroacetyl-1a,2,3,3a,4,6b-hexahydro-1H-2,6a-diazacyclobut[cd]indene-6-carboxylic acid sodium salt] | 1 | 1 | 
CC(=O)N1C[C@H]2CC(CN=[N+]=[N-])=C(C(=O)O)N3C(=O)[C@@H]1[C@@H]23 [83(a), (1aS,3aR,6bR)-2-Acetyl-5-azidomethyl-1-oxo-1a,2,3,3a,4,6b-hexahydro-1H-2,6a-diazacyclobut[cd]indene-6-carboxylic acid sodium salt] | 2 | 0.5 | 
C=CC1=C(C(=O)O)N2C(=O)[C@@H]3[C@H]2[C@H](C1)CN3C(=O)Nc1ccc(O)cc1 [46(a), (1aS,3aR,6bR)-2-(4-Hydroxy-phenylcarbamoyl)-1-oxo-5-vinyl-1a,2,3,3a,4,6b-hexahydro-1H-2,6a-diazacyclobut[cd]indene-6-carboxylic acid sodium salt] | 64 | 1 | 
CS(=O)(=O)OC1=C(C(=O)O)N2C(=O)[C@@H]3[C@H]2[C@H](C1)CN3C(=O)Nc1ccc(O)cc1 [9(a), (1aS,3aR,6bR)-2-(4-Hydroxy-phenylcarbamoyl)-5-methylsulphonyloxy-1-oxo-1a,2,3,3a,4,6b-hexahydro-1H-2,6a-diazacyclobut[cd]indene-6-carboxylic acid sodium salt] |  |  | MIC E. coli 1346 [1]: 32 µg/mL; MIC C. freundii 1982 [2, 3]: 0.12 µg/mL
O=C(O)C1=C(CSc2ncccn2)C[C@@H]2CN(C(=O)C(F)(F)F)[C@@H]3C(=O)N1[C@H]23 [72(b), (1aS,3aR,6bR)-1-Oxo-5-(pyrimidin-2-ylsulphanylmethyl)-2-trifluoroacetyl-1a,2,3,3a,4,6b-hexahydro-1H-2,6a-diazacyclobut[cd]indene-6-carboxylic acid sodium salt] | 4 | 2 | 
N#CCC(=O)N1C[C@H]2CC(Sc3nnc(N)s3)=C(C(=O)O)N3C(=O)[C@@H]1[C@@H]23 [3(ag), (1aS,3aR,6bR)-5-(5-Amino-1,3,4-thiadiazol-2-ylsulphanyl)-2-cyanoacetyl-1-oxo-1a,2,3,3a,4,6b-hexahydro-1H-2,6a-diazacyclobut[cd]indene-6-carboxylic acid sodium salt] | 8 | 2 | 
O=C(O)C1=C(CSc2nc[nH]n2)C[C@@H]2CN[C@@H]3C(=O)N1[C@H]23 [Example 75, (1aS,3aR,6 bR)-1-Oxo-5-(1H-1,2,4-triazol-3-ylsulphanylmethyl)-1a,2,3,3a,4,6b-hexahydro-1H-2,6a-diazacyclobut[cd]indene-6-carboxylic acid trifluoroacetate] | 4 | 1 | 
NC(=O)Cn1nnnc1SCC1=C(C(=O)O)N2C(=O)[C@@H]3[C@H]2[C@H](C1)CN3C=O [70(c), (1aS,3aR,6bR)-5-(1-Carbamoylmethyl-1H-tetrazol-5-ylsulphanylmethyl)-2-formyl-1-oxo-1a,2,3,3a,4,6b-hexahydro-1H-2,6a-diazacyclobut[cd]indene-6-carboxylic acid sodium salt] |  |  | MIC E. coli 1346 (E) [1, 5]: 1 µg/mL; MIC C. freundii 1982 (D) [2, 6]: 0.25 µg/mL
CC(=O)N1C[C@H]2CC(CSc3nnnn3CC(=O)NCCc3ccccc3)=C(C(=O)O)N3C(=O)[C@@H]1[C@@H]23 [80(a), (1aS,3aR,6bR)-2-Acetyl-1-oxo-5-[1-(phenethylcarbamoylmethyl)-1H-tetrazol-5-ylsulphanylmethyl]-1a,2,3,3a,4,6b-hexahydro-1H-2,6a-diazacyclobut[cd]indene-6-carboxylic acid sodium salt] | 0.5 | 4 | 
